Results taken from patent US9273033B2, “Substituted pyridone derivatives as PDE10 inhibitors” (Merck Sharp & Dohme Corp., priority 2012, dated 2016).

Molecular target: human PDE10A2 (Homo sapiens (Human), UniProt Q9Y233)
Test: PDE10 fluorescence polarization (IMAP FP) inhibition assay
Type: biochemical
Details: human PDE10A2, FAM-labeled cAMP substrate, read-out: PDE10A Ki
How it was run: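 Cytoplasmic lysate of AD293 cells transiently expressing human PDE10A2 (diluted to ~20% substrate conversion) incubated 30 min at room temperature with 50 nM FAM-cAMP in Tris pH 7.2 buffer with MgCl2, DTT. Activity read by IMAP fluorescence polarization. 0% inhibition set with 1% DMSO, 100% with reference PDE10 inhibitor.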

Sequence of human PDE10A2 (Q9Y233 267-1055): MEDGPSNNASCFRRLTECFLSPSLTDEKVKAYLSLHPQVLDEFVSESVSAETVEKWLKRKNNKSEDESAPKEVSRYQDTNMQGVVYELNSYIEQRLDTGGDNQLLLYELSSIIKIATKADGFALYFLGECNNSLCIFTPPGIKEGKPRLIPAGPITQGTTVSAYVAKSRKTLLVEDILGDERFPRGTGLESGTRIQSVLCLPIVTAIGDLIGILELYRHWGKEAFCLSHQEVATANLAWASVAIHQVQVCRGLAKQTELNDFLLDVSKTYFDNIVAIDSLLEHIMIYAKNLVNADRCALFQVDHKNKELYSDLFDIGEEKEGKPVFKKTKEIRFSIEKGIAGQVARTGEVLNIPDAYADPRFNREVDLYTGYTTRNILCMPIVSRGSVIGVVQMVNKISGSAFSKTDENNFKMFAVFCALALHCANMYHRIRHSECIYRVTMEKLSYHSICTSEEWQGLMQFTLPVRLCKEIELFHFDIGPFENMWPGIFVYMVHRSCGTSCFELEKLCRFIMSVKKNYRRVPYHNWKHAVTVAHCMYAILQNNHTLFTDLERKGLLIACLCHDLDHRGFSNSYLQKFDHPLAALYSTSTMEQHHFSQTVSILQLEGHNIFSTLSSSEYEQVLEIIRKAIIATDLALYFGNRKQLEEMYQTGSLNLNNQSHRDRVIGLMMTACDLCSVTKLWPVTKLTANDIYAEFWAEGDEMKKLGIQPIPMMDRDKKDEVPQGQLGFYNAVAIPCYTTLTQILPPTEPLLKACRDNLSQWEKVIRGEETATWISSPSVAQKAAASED

| SMILES | Ki |
| --- | --- |
| COc1ccc([C@H]2C[C@@H]2COc2nc(C)ncc2-c2cc(=O)n(C)nc2OC)nc1 [Example 138, 6-methoxy-5-(4-(((1S,2S)-2-(5-methoxypyridin-2-yl)cyclopropyl)methoxy)-2-methylpyrimidin-5-yl)-2-methylpyridazin-3(2H)-one] | 2.16 nM |
| CCn1ccc(-c2cnc(C)nc2OC[C@H]2C[C@@H]2c2ccc(OC)cn2)cc1=O [Example 95, 1-ethyl-4-(4-(((1S,2S)-2-(5-methoxypyridin-2-yl)cyclopropyl)methoxy)-2-methylpyrimidin-5-yl)pyridin-2(1H)-one] | 0.75 nM |
| Cc1ccc([C@H]2C[C@@H]2COc2nc(C)ncc2-c2cc(C)n(C)c(=O)c2)nc1 [Example 86, 1,6-dimethyl-4-(2-methyl-4-(((1S,2S)-2-(5-methylpyridin-2-yl)cyclopropyl)methoxy)pyrimidin-5-yl)pyridin-2(1H)-one] | 1.56 nM |
| COc1ccc([C@H]2C[C@@H]2COc2nc(C)ncc2-c2cc(=O)n(C)nc2O)nc1 [Example 139, 6-hydroxy-5-(4-(((1S,2S)-2-(5-methoxypyridin-2-yl)cyclopropyl)methoxy)-2-methylpyrimidin-5-yl)-2-methylpyridazin-3(2H)-one] | 21.2 nM |
| COc1ccc([C@H]2C[C@@H]2COc2nc(C)ncc2-c2cnn(C)c(=O)c2)nc1 [Example 136, 5-(4-(((1S,2S)-2-(5-methoxypyridin-2-yl)cyclopropyl)methoxy)-2-methylpyrimidin-5-yl)-2-methylpyridazin-3(2H)-one] | 5.74 nM |
| COc1ccc([C@H]2C[C@@H]2COc2nc(C)ncc2-c2ccn(C)c(=O)c2)nc1 [Example 128, 4-(4-(((1S,2S)-2-(5-methoxypyridin-2-yl)cyclopropyl)methoxy)-2-methylpyrimidin-5-yl)-1-methylpyridin-2(1H)-one] | 1.54 nM |
| CCc1cc(-c2cnc(C)nc2OC[C@H]2C[C@@H]2c2ccc(C)cn2)cn(C)c1=O [Example 55, 3-ethyl-1-methyl-5-(2-methyl-4-(((1S,2S)-2-(5-methylpyridin-2-yl)cyclopropyl)methoxy)pyrimidin-5-yl)pyridin-2(1H)-one] | 0.347 nM |
| Cc1ncc(-c2cc(=O)n(C)cc2Cl)c(OC[C@H]2C[C@@H]2c2ccc3ccccc3n2)n1 [Example 102, 5-chloro-1-methyl-4-(2-methyl-4-(((1S,2S)-2-(quinolin-2-yl)cyclopropyl)methoxy)pyrimidin-5-yr)pyridin-2(1H)-one] | 0.04 nM |
| COc1ccc([C@H]2C[C@@H]2COc2nc(C)ncc2-c2nn(C)c(=O)cc2C)nc1 [Example 67, 6-(4-(((1S,2S)-2-(5-methoxypyridin-2-yl)cyclopropyl)methoxy)-2-methylpyrimidin-5-yl)-2,5-dimethylpyridazin-3(2H)-one] | 5.55 nM |
| COc1ccc([C@H]2C[C@@H]2COc2nc(C)ncc2-c2ccn(CC(=O)O)c(=O)c2)nc1 [Example 134, 2-(4-(4-(((1S,2S)-2-(5-methoxypyridin-2-yl)cyclopropyl)methoxy)-2-methylpyrimidin-5-yl)-2-oxopyridin-1(2H)-yl)acetic acid] | 9.85 nM |
| COc1ccc([C@H]2C[C@@H]2COc2nc(C)ncc2-c2ccn(C(F)F)c(=O)c2)nc1 [Example 117, 1-(difluoromethyl)-4-(4-(((1S,2S)-2-(5-methoxypyridin-2-yl)cyclopropyl)methoxy)-2-methylpyrimidin-5-yl)pyridin-2(1H)-one] | 1.93 nM |
| COc1ccc([C@H]2C[C@@H]2COc2nc(C)ncc2-c2cc(C)n(C)c(=O)c2)nc1 [Example 87, 4-(4-(((1S,2S)-2-(5-methoxypyridin-2-yl)cyclopropyl)mcthoxy)-2-methylpyrimidin-5-yl)-1,6-dimethylpyridin-2(1H)-one] | 0.785 nM |
| C=CCn1ccc(-c2cnc(C)nc2OC[C@H]2C[C@@H]2c2ccc(OC)cn2)cc1=O [Example 122, 1-allyl-4-(4-(((1S,2S)-2-(5-methoxypyridin-2-yl)cyclopropyl)methoxy)-2-methylpyrimidin-5-yl)pyridin-2(1H)-one] | 0.458 nM |
| COC(=O)Cn1ccc(-c2cnc(C)nc2OC[C@H]2C[C@@H]2c2ccc(C)cn2)cc1=O [Example 129, methyl 2-(4-(2-methyl-4-(((1S,2S)-2-(5-methylpyridin-2-yl)cyclopropyl)methoxy)pyrimidin-5-yl)-2-oxopyridin-1(2H)-yl)acetate] | 0.394 nM |
| COc1ccc([C@H]2C[C@@H]2COc2nc(C)ncc2-c2ccc(=O)n(C)n2)nc1 [Example 64, 6-(4-(((1S,2S)-2-(5-methoxypyridin-2-yl)cyclopropyl)methoxy)-2-methylpyrimidin-5-yl)-2-methylpyridazin-3(2H)-one] | 2.83 nM |
| CCn1cc(-c2cnc(C)nc2OC[C@H]2C[C@@H]2c2ccc(OC)cn2)ccc1=O [Example 24, 1-ethyl-5-(4-(((1S,2S)-2-(5-methoxypyridin-2-yl)cyclopropyl)methoxy)-2-methylpyrimidin-5-yl)pyridin-2(1H)-one] | 1.07 nM |

| SMILES | Ki |
| --- | --- |
| Cc1ncc(-c2ccn(C)c(=O)c2)c(OC[C@H]2C[C@@H]2c2ccc3c(n2)CCC3)n1 [Example 114, 4-(4-(((1S,2S)-2-(6,7-dihydro-5H-cyclopenta[b]pyridin-2-yl)cyclopropyl)methoxy)-2-methylpyrimidin-5-yl)-1-methylpyridin-2(1H)-one] | 0.378 nM |
| CCn1cc(-c2cnc(C)nc2OC[C@H]2C[C@@H]2c2ccc(OC)cn2)cc(C)c1=O [Example 35, 1-ethyl-5-(4-(((1S,2S)-2-(5-methoxypyridin-2-yl)cyclopropyl)methoxy)-2-methylpyrimidin-5-yl)-3-methylpyridin-2(1H)-one] | 0.381 nM |
| COn1cc(-c2cnc(C)nc2OC[C@H]2C[C@@H]2c2ccc(C)cn2)ccc1=O [Example 8, 1-methoxy-5-(2-methyl-4-(((1S,2S)-2-(5-methylpyridin-2-yl)cyclopropyl)methoxy)pyrimidin-5-yl)pyridin-2(1H)-one] | 2.33 nM |
| COc1ccc([C@H]2C[C@@H]2COc2nc(C)ncc2-c2cc(C#N)c(=O)n(C)c2C)nc1 [Example 60, 5-(4-(((1S,2S)-2-(5-methoxypyridin-2-yl)cyclopropyl)methoxy)-2-methylpyrimidin-5-yl)-1,6-dimethyl-2-oxo-1,2-dihydropyridine-3-carbonitrile] | 0.117 nM |
| Cc1ccc([C@H]2C[C@@H]2COc2nc(C)ncc2-c2ccc(=O)n(CCC#N)c2)nc1 [Example 46, 3-(5-(2-methyl-4-(((1S,2S)-2-(5-methylpyridin-2-yl)cyclopropyl)methoxy)pyrimidin-5-yl)-2-oxopyridin-1(2H)-yl)propanenitrile] | 2.15 nM |
| Cc1ccc([C@H]2C[C@@H]2COc2nc(C)ncc2-c2ccn(CC(F)F)c(=O)c2)nc1 [Example 106, 1-(2,2-difluoroethyl)-4-(2-methyl-4-(((1S,2S)-2-(5-methylpyridin-2-yl)cyclopropyl)methoxy)pyrimidin-5-yl)pyridin-2(1H)-one] | 1.81 nM |
| [2H]C([2H])([2H])n1cc(-c2cnc(C)nc2OC[C@H]2C[C@@H]2c2ccc(C)cn2)ccc1=O [Example 48, 1-methyl-5-(2-methyl-4-(((1S,2S)-2-(5-methylpyridin-2-yl)cyclopropyl)methoxy)pyrimidin-5-yl)pyridin-2(1H)-one] | 1.7 nM |
| Cc1ncc(-c2ccn(C)c(=O)c2)c(OC[C@@H]2C[C@H]2c2ccc(OC(F)F)cn2)n1 [Example 94, 4-(4-(((1R,2R)-2-(5-(difluoromethoxy)pyridin-2-yl)cyclopropyl)methoxy)-2-methylpyrimidin-5-yl)-1-methylpyridin-2(1H)-one] | 100 nM |
| CCn1ccc(-c2cnc(C)nc2OC[C@H]2C[C@@H]2c2ccc(C)cn2)cc1=O [Example 69, 1-ethyl-4-(2-methyl-4-(((1S,2S)-2-(5-methylpyridin-2-yl)cyclopropyl)methoxy)pyrimidin-5-yl)pyridin-2(1H)-one] | 1.43 nM |
| Cc1ccc([C@H]2C[C@@H]2COc2nc(C)ncc2-c2ccc(=O)n(-c3ccccc3)c2)nc1 [Example 15, 5-(2-methyl-4-(((1S,2S)-2-(5-methylpyridin-2-yl)cyclopropyl)methoxy)pyrimidin-5-yl)-1-phenylpyridin-2(1H)-one] | 4.86 nM |
| CCn1cc(-c2cnc(C)nc2OC[C@H]2C[C@@H]2c2ccc3ccccc3n2)ccc1=O [Example 32, 1-ethyl-5-(2-methyl-4-(((1S,2S)-2-(quinolin-2-yl)cyclopropyl)methoxy)pyrimidin-5-yl)pyridin-2(1H)-one] | 0.024 nM |
| COc1ccc([C@H]2C[C@@H]2COc2nc(C)ncc2-c2ccn(C)c(=O)c2C#N)nc1 [Example 104, 4-(4-(((1S,2S)-2-(5-methoxypyridin-2-yl)cyclopropyl)methoxy)-2-methylpyrimidin-5-yl)-1-methyl-2-oxo-1,2-dihydropyridine-3-carbonitrile] | 8.16 nM |
| COc1ccc([C@H]2C[C@@H]2COc2nc(C)ncc2-c2cc(F)c(=O)n(C)c2)nc1 [Example 18, 3-fluoro-5-(4-(((1S,2S)-2-(5-methoxypyridin-2-yl)cyclopropyl)methoxy)-2-methylpyrimidin-5-yl)-1-methylpyridin-2(1H)-one] | 1.29 nM |
| Cc1ncc(-c2cc(=O)[nH]cc2C)c(OC[C@H]2C[C@@H]2c2ccccn2)n1 [Example 75, 5-methyl-4-(2-methyl-4-(((1S,2S)-2-(pyridin-2-yl)cyclopropyl)methoxy)pyrimidin-5-yl)pyridin-2(1H)-one] | 8.38 nM |
| COc1ccc([C@H]2C[C@@H]2COc2nc(C)ncc2-c2ccc(=O)n(C)c2C)nc1 [Example 27, 5-(4-(((1S,2S)-2-(5-methoxypyridin-2-yl)cyclopropyl)methoxy)-2-methylpyrimidin-5-yl)-1,6-dimethylpyridin-2(1H)-one] | 0.113 nM |
| CCOC(=O)c1cn(C)c(=O)cc1-c1cnc(C)nc1OC[C@H]1C[C@@H]1c1ccc(OC)cn1 [Example 108, ethyl 4-(4-(((1S,2S)-2-(5-methoxypyridin-2-yl)cyclopropyl)methoxy)-2-methylpyrimidin-5-yl)-1-methyl-6-oxo-1,6-dihydropyridine-3-carboxylate] | 100 nM |
